# Measured values reported in the Kinase Knowledgebase extract (Sharma et al. 2016).
# Assays:
# [1] = target: CDK2 (human) (UniProt P24941); details: A431
# [2] = target: EGFR (UniProt P00533)
# [3] = target: CDK2 (human) (UniProt P24941); experiment: Cell-Based Assay
# [4] = target: CDK2 (UniProt P24941); experiment: Enzyme Assay
# EGFR, sequence (P00533 whole entry, looked up): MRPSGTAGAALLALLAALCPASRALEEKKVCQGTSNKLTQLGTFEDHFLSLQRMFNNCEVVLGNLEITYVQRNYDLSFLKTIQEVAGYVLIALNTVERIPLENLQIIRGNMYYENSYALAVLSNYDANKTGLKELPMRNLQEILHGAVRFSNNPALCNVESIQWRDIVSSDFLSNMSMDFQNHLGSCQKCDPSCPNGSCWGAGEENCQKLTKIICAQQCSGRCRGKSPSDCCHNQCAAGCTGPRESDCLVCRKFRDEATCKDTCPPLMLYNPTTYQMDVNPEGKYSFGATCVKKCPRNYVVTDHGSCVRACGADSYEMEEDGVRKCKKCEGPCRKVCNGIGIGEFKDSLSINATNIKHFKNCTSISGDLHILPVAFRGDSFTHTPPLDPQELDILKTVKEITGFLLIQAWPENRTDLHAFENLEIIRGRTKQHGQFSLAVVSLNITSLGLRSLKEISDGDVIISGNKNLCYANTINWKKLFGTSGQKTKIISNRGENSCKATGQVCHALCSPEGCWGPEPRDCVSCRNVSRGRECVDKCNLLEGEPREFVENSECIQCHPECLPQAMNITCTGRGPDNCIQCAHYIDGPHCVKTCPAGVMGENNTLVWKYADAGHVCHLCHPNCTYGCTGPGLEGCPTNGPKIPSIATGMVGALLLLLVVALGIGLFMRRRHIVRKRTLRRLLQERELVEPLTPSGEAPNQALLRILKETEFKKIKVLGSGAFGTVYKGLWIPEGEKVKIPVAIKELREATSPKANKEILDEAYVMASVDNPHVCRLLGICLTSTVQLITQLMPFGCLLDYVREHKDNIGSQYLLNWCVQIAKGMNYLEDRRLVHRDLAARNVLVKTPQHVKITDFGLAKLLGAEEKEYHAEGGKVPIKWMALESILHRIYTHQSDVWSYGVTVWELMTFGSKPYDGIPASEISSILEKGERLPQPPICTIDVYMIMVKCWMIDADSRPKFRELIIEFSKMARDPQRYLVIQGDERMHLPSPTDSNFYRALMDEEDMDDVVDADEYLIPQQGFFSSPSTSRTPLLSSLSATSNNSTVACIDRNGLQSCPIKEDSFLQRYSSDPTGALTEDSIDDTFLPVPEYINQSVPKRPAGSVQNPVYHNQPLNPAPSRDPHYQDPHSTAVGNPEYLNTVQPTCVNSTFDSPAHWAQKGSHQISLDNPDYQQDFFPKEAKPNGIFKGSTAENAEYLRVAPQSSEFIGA
IC50 [2],IC50 [4],SMILES,GI50 [1],GI50 ([3]; hct-116),GI50 ([3]; snu638)
> 100 µM,3.1 µM,COc1cccc(Nc2nc(NCCO)nc3[nH]ncc23)c1,> 100 µM,38.2 µM,17.1 µM
> 100 µM,> 100 µM,CC(C)n1ncc2c(NCc3ccc(N)cc3)nc(NCCO)nc21,55.3 µM,> 100 µM,38.2 µM
> 100 µM,46.8 µM,CC(C)n1ncc2c(NCc3ccc([N+](=O)[O-])cc3)nc(NCCO)nc21,32 µM,77.7 µM,23.4 µM
> 100 µM,47.9 µM,CC(C)n1ncc2c(Nc3cccc(F)c3)nc(N(CCO)CCO)nc21,6.25 µM,10.9 µM,7.95 µM
> 100 µM,> 100 µM,Cn1ncc2c(NCc3ccccc3)nc(NCCO)nc21,42.7 µM,> 100 µM,37.1 µM
> 100 µM,> 100 µM,CC(C)n1ncc2c(NCc3ccccc3)nc(NCCO)nc21,35.6 µM,57.6 µM,25.2 µM
> 100 µM,28.2 µM,CC(C)n1ncc2c(Nc3cccc(Br)c3)nc(NCCO)nc21,2.19 µM,6.46 µM,4.28 µM
> 100 µM,57.5 µM,COc1cccc(Nc2nc(N(CCO)CCO)nc3c2cnn3C)c1,12.9 µM,17.2 µM,10.5 µM
> 100 µM,> 100 µM,COc1cccc(Nc2nc(NCCO)nc3c2cnn3C(C)C)c1,13.1 µM,21.4 µM,7.55 µM
> 100 µM,> 100 µM,Cn1ncc2c(Nc3cccc(Br)c3)nc(N(CCO)CCO)nc21,2.94 µM,16.6 µM,6.2 µM
66.1 µM,0.5 µM,OCCNc1nc(Nc2cccc(F)c2)c2cn[nH]c2n1,28.9 µM,> 100 µM,> 100 µM
> 100 µM,> 100 µM,CC(C)n1ncc2c(NCc3ccccc3)nc(N(CCO)CCO)nc21,21.9 µM,47.7 µM,26.1 µM
> 100 µM,29.5 µM,CC(C)n1ncc2c(Nc3cccc(Br)c3)nc(N(CCO)CCO)nc21,2.58 µM,5.06 µM,4.1 µM
> 100 µM,> 100 µM,COc1cccc(Nc2nc(NCCO)nc3c2cnn3C)c1,19.1 µM,90.4 µM,21.7 µM
> 100 µM,8.1 µM,OCCNc1nc(Nc2cccc(Br)c2)c2cn[nH]c2n1,> 100 µM,> 100 µM,69.2 µM
> 100 µM,66 µM,COc1cccc(Nc2nc(N(CCO)CCO)nc3c2cnn3C(C)C)c1,4.43 µM,12.6 µM,7.92 µM
> 100 µM,49 µM,CC(C)n1ncc2c(Nc3cccc(F)c3)nc(NCCO)nc21,7.8 µM,19.3 µM,7.57 µM
36.3 µM,3.8 µM,OCCN(CCO)c1nc(Nc2cccc(Br)c2)c2cn[nH]c2n1,> 100 µM,> 100 µM,38.9 µM
29.5 µM,36.3 µM,Cn1ncc2c(Nc3cccc(F)c3)nc(N(CCO)CCO)nc21,3.94 µM,8.89 µM,2.56 µM
> 100 µM,17.8 µM,Cn1ncc2c(NCc3ccc([N+](=O)[O-])cc3)nc(NCCO)nc21,23.4 µM,48.5 µM,24.9 µM
47.9 µM,> 100 µM,Cn1ncc2c(Nc3cccc(Br)c3)nc(NCCO)nc21,31.9 µM,> 100 µM,18.2 µM
55 µM,37.2 µM,OCCN(CCO)c1nc(NCc2ccccc2)c2cn[nH]c2n1,> 100 µM,93.6 µM,29 µM
–,–,COc1cccc2c1C(=O)c1c(O)c3c(c(O)c1C2=O)C[C@@](O)(C(=O)CO)CC3O[C@H]1C[C@H](N)[C@H](O)[C@H](C)O1 (some centres not stated),0.18 µM,0.13 µM,–
> 100 µM,0.9 µM,OCCN(CCO)c1nc(Nc2cccc(F)c2)c2cn[nH]c2n1,54.3 µM,> 100 µM,> 100 µM
> 100 µM,> 100 µM,Cn1ncc2c(NCc3ccc(N)cc3)nc(NCCO)nc21,58.9 µM,> 100 µM,96.8 µM
> 100 µM,21.4 µM,Cn1ncc2c(Nc3cccc(F)c3)nc(NCCO)nc21,16.3 µM,28.2 µM,15.8 µM
> 100 µM,10.2 µM,COc1cccc(Nc2nc(N(CCO)CCO)nc3[nH]ncc23)c1,> 100 µM,> 100 µM,> 100 µM
77.6 µM,> 100 µM,Cn1ncc2c(NCc3ccccc3)nc(N(CCO)CCO)nc21,24.3 µM,53.4 µM,25.3 µM
93.3 µM,29.5 µM,OCCNc1nc(NCc2ccccc2)c2cn[nH]c2n1,26.6 µM,4.5 µM,20.8 µM
